The text below walks through data of patent publication US20030134884A1, “Neovascularization inhibitors” (priority 2000, published 2003).

Data set [1] deals with Human Microvascular Endothelial Cells (HMVE). Put plainly: human microvascular endothelial cell growth inhibitory assay (Alamar Blue). Type of data set: cell-based. Conditions: 72 h, cultured 3 days, 2% bovine fetal serum, Alamar Blue fluorescence, control well = 100%, read-out: IC50 (concentration showing 50% growth inhibitory activity). As for the experimental part:
The angiogenesis inhibitory action of compound (II) and an insulin sensitizer other than compound (II) was determined by a human microvascular endothelial cell growth inhibitory assay method. Human microvascular endothelial cells [Human Microvascular Endothelial Cells (HMVE), (produced by KURABO INDUSTRIES LTD., Japan)] (2×10^4/ml medium, 0.1 ml/well) in MCDB107 medium (GIBCO, US) containing 2% bovine fetal serum was dispensed to a 96 well collagen-coated microplate (produced by SUMITOMO BAKELITE CO., LTD., Japan) and a dimethylformamide (DMF) solution containing various test compounds was diluted and added to the test group. The cells were cultured at 37° C. in 5% CO2 for 3 days. Alamar Blue was added to each well and reacted at 37° C. for 4 hr. Using a fluorometer (Fluoroskan Ascent, produced by LabSystems, US), the fluorescence intensity was measured and the cell count of the well was compared with that of control. Taking the cell count of the control well as 100%, the concentration (IC50) showing 50% growth inhibitory activity was calcualted.
In general terms: Resazurin is reduced to fluorescent resorufin, in cell work by metabolically active cells.

The structures appear in SMILES notation.

Consider `Cc1oc(-c2ccccc2)nc1COc1ccc(CO/N=C(\CCC(=O)O)c2ccccc2)cc1` [compound (7), E-4-[4-(5-methyl-2-phenyl-4-oxazolylmethoxy)benzyloxyimino]-4-phenylbutyric acid], for which, in data set [1], the IC50 was determined as 23 µM.

On to `Cc1c(C)c2c(c(C)c1O)CCC(C)(COc1ccc(CC3SC(=O)NC3=O)cc1)O2` (stereo not shown) [compound (B), 5[[4-[(3,4-dihydro-6-hydroxy-2,5,7,8-tetramethyl-2H-1-benzopyran-2-yl)methoxy]phenyl]methyl]-2,4-thiazolidinedione], for which, in data set [1], the IC50 was determined as 107 µM.

What is called melting point is the temperature of the solid-liquid transition. `Cc1sc(-c2ccccc2)nc1COc1ccc(CCC[C@H]2OC(=O)NC2=O)cc1` [compound (D), (R)-(+)-5-[3-[4-[(5-methyl-2-phenyl-4-thiazolyl)methoxy]phenyl]propyl]-2,4-oxazolidinedione]: the melting point was 130 to 131 °C. Moreover, the IC50 in data set [1] came out at 496 µM.
